What was measured:
Assay in all cases: biochemical
Type in all cases: biochemical
[1] = molecular target: T1, 382 unique human kinases (Homo sapiens, UniProt P07949, V804L); conditions: RET (V804L), 10 uM; for remaining activity at 10 µM: read-out: % Enzyme Activity (relative to DMSO controls)
T1 construct: purchased Reaction Biology (HotSpot contract assay)

[2] = molecular target: T2, 382 unique human kinases (Homo sapiens, UniProt P10721, T670I/V559D); conditions: c-Kit (V559D/T670I), 10 uM; for remaining activity at 10 µM: read-out: % Enzyme Activity (relative to DMSO controls)
T2 construct: purchased Reaction Biology (HotSpot contract assay)

[3] = molecular target: T3, 382 unique human kinases (Homo sapiens, UniProt Q00536); conditions: CDK16/cyclin Y (PCTAIRE), 10 uM; for remaining activity at 10 µM: read-out: % Enzyme Activity (relative to DMSO controls)
T3 construct: purchased Reaction Biology (HotSpot contract assay)

[4] = molecular target: T4, 382 unique human kinases (Homo sapiens, UniProt Q02750, P124L); conditions: MEK1 (P124L), 10 uM; for remaining activity at 10 µM: read-out: % Enzyme Activity (relative to DMSO controls)
T4 construct: purchased Reaction Biology (HotSpot contract assay)

[5] = molecular target: T5, 382 unique human kinases (Homo sapiens, UniProt Q02763, P883A); conditions: TIE2 (P883A), 10 uM; for remaining activity at 10 µM: read-out: % Enzyme Activity (relative to DMSO controls)
T5 construct: purchased Reaction Biology (HotSpot contract assay)

[6] = molecular target: T6, 382 unique human kinases (Homo sapiens, UniProt Q14289); conditions: PYK2, 10 uM; for remaining activity at 10 µM: read-out: % Enzyme Activity (relative to DMSO controls)
T6 construct: purchased Reaction Biology (HotSpot contract assay)

[7] = molecular target: T7, 382 unique human kinases (Homo sapiens, UniProt Q9NRH2); conditions: SNRK, 10 uM; for remaining activity at 10 µM: read-out: % Enzyme Activity (relative to DMSO controls)
T7 construct: purchased Reaction Biology (HotSpot contract assay)
T7 sequence (Q9NRH2 1-765): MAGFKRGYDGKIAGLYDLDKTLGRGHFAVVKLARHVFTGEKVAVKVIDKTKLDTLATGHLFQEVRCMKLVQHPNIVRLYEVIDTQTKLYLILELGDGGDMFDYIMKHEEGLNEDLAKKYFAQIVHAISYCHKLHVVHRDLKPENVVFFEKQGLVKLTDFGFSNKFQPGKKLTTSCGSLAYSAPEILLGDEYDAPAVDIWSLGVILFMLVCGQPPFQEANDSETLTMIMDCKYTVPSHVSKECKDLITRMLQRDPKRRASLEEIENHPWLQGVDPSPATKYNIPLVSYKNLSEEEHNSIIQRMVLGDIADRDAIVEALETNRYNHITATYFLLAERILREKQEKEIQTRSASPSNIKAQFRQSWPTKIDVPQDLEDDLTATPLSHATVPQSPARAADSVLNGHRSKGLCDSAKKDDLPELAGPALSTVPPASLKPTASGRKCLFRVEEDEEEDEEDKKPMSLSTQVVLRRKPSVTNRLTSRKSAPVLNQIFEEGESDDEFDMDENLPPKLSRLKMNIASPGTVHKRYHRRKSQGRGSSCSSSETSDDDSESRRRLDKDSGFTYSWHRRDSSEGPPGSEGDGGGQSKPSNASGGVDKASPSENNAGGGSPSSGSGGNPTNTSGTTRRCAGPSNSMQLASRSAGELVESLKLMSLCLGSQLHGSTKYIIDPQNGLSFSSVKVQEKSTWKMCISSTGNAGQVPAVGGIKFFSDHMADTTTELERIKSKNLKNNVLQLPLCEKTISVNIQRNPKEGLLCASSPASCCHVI

[8] = molecular target: T8, 382 unique human kinases (Homo sapiens, UniProt P07947); conditions: YES/YES1, [ATP] 50 µM
T8 construct: purchased Reaction Biology (HotSpot contract assay)

[9] = molecular target: T9, 382 unique human kinases (Homo sapiens, UniProt P17612); conditions: PKA, 10 uM; for remaining activity at 10 µM: read-out: % Enzyme Activity (relative to DMSO controls)
T9 construct: purchased Reaction Biology (HotSpot contract assay)

[10] = molecular target: T10, 382 unique human kinases (Homo sapiens, UniProt P29317); conditions: EPHA2, [ATP] 50 µM, compound 10 uM; for remaining activity at 10 µM: read-out: % Enzyme Activity (relative to DMSO controls)
T10 construct: purchased Reaction Biology (HotSpot contract assay)

[11] = molecular target: T11, 382 unique human kinases (Homo sapiens, UniProt P43250); conditions: GRK6, 10 uM; for remaining activity at 10 µM: read-out: % Enzyme Activity (relative to DMSO controls)
T11 construct: purchased Reaction Biology (HotSpot contract assay)

[12] = molecular target: T12, 382 unique human kinases (Homo sapiens, UniProt P46734); conditions: MEK3, 10 uM; for remaining activity at 10 µM: read-out: % Enzyme Activity (relative to DMSO controls)
T12 construct: purchased Reaction Biology (HotSpot contract assay)
T12 sequence (P46734 1-347): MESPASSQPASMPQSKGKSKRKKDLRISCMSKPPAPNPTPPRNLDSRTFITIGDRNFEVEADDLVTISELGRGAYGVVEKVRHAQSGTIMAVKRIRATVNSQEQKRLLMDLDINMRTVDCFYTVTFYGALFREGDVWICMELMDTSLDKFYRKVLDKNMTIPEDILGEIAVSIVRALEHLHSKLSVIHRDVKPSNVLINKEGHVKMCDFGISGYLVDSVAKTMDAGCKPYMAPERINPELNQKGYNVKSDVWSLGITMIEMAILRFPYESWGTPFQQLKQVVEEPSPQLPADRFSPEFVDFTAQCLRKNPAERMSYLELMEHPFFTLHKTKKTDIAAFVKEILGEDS

[13] = molecular target: T13, 382 unique human kinases (Homo sapiens, UniProt P78368); conditions: CK1g2, 10 uM; for remaining activity at 10 µM: read-out: % Enzyme Activity (relative to DMSO controls)
T13 construct: purchased Reaction Biology (HotSpot contract assay)

[14] = molecular target: T14, 382 unique human kinases (Homo sapiens, UniProt Q06187); conditions: BTK, [ATP] 50 µM, compound 10 uM; for remaining activity at 10 µM: read-out: % Enzyme Activity (relative to DMSO controls)
T14 construct: purchased Reaction Biology (HotSpot contract assay)

[15] = molecular target: T15, 382 unique human kinases (Homo sapiens, UniProt Q52WX2); conditions: SBK1, 10 uM; for remaining activity at 10 µM: read-out: % Enzyme Activity (relative to DMSO controls)
T15 construct: purchased Reaction Biology (HotSpot contract assay)

[16] = molecular target: T16, 382 unique human kinases (Homo sapiens, UniProt Q5S007, G2019S); conditions: LRRK2 (G2019S), [ATP] 50 µM, compound 10 uM; for remaining activity at 10 µM: read-out: % Enzyme Activity (relative to DMSO controls)
T16 construct: purchased Reaction Biology (HotSpot contract assay)

[17] = molecular target: T17, 382 unique human kinases (Homo sapiens, UniProt Q5S007, I2020T); conditions: LRRK2 (I2020T), [ATP] 10 µM, compound 10 uM; for remaining activity at 10 µM: read-out: % Enzyme Activity (relative to DMSO controls)
T17 construct: purchased Reaction Biology (HotSpot contract assay)

[18] = molecular target: T18, 382 unique human kinases (Homo sapiens, UniProt Q8IY84); conditions: NIM1, 10 uM; for remaining activity at 10 µM: read-out: % Enzyme Activity (relative to DMSO controls)
T18 construct: purchased Reaction Biology (HotSpot contract assay)

[19] = molecular target: T19, 382 unique human kinases (Homo sapiens, UniProt Q8N568); conditions: DCAMKL2, 10 uM; for remaining activity at 10 µM: read-out: % Enzyme Activity (relative to DMSO controls)
T19 construct: purchased Reaction Biology (HotSpot contract assay)

[20] = compound 10 uM, read-out: % Enzyme Activity (relative to DMSO controls)

T19 sequence (Q8N568 whole entry): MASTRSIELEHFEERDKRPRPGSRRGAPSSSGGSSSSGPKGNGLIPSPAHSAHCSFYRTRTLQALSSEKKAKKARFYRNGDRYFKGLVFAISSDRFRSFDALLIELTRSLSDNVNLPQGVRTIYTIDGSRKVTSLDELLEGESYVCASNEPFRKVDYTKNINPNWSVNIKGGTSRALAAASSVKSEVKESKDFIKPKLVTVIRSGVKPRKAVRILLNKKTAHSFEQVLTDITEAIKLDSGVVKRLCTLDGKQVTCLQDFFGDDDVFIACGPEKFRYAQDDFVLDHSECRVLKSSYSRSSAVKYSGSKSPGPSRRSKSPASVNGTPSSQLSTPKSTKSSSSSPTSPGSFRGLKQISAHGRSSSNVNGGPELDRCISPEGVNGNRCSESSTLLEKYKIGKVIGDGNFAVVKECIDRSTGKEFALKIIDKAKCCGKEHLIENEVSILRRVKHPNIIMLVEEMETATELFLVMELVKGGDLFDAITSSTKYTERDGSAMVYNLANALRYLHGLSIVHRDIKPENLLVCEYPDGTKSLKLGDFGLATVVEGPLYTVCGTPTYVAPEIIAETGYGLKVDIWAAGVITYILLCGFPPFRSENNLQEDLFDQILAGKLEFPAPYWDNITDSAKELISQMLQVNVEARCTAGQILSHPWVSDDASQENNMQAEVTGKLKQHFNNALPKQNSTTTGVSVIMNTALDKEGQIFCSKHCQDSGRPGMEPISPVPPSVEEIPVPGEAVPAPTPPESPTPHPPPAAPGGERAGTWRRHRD
T16 sequence (Q5S007 whole entry G2019S): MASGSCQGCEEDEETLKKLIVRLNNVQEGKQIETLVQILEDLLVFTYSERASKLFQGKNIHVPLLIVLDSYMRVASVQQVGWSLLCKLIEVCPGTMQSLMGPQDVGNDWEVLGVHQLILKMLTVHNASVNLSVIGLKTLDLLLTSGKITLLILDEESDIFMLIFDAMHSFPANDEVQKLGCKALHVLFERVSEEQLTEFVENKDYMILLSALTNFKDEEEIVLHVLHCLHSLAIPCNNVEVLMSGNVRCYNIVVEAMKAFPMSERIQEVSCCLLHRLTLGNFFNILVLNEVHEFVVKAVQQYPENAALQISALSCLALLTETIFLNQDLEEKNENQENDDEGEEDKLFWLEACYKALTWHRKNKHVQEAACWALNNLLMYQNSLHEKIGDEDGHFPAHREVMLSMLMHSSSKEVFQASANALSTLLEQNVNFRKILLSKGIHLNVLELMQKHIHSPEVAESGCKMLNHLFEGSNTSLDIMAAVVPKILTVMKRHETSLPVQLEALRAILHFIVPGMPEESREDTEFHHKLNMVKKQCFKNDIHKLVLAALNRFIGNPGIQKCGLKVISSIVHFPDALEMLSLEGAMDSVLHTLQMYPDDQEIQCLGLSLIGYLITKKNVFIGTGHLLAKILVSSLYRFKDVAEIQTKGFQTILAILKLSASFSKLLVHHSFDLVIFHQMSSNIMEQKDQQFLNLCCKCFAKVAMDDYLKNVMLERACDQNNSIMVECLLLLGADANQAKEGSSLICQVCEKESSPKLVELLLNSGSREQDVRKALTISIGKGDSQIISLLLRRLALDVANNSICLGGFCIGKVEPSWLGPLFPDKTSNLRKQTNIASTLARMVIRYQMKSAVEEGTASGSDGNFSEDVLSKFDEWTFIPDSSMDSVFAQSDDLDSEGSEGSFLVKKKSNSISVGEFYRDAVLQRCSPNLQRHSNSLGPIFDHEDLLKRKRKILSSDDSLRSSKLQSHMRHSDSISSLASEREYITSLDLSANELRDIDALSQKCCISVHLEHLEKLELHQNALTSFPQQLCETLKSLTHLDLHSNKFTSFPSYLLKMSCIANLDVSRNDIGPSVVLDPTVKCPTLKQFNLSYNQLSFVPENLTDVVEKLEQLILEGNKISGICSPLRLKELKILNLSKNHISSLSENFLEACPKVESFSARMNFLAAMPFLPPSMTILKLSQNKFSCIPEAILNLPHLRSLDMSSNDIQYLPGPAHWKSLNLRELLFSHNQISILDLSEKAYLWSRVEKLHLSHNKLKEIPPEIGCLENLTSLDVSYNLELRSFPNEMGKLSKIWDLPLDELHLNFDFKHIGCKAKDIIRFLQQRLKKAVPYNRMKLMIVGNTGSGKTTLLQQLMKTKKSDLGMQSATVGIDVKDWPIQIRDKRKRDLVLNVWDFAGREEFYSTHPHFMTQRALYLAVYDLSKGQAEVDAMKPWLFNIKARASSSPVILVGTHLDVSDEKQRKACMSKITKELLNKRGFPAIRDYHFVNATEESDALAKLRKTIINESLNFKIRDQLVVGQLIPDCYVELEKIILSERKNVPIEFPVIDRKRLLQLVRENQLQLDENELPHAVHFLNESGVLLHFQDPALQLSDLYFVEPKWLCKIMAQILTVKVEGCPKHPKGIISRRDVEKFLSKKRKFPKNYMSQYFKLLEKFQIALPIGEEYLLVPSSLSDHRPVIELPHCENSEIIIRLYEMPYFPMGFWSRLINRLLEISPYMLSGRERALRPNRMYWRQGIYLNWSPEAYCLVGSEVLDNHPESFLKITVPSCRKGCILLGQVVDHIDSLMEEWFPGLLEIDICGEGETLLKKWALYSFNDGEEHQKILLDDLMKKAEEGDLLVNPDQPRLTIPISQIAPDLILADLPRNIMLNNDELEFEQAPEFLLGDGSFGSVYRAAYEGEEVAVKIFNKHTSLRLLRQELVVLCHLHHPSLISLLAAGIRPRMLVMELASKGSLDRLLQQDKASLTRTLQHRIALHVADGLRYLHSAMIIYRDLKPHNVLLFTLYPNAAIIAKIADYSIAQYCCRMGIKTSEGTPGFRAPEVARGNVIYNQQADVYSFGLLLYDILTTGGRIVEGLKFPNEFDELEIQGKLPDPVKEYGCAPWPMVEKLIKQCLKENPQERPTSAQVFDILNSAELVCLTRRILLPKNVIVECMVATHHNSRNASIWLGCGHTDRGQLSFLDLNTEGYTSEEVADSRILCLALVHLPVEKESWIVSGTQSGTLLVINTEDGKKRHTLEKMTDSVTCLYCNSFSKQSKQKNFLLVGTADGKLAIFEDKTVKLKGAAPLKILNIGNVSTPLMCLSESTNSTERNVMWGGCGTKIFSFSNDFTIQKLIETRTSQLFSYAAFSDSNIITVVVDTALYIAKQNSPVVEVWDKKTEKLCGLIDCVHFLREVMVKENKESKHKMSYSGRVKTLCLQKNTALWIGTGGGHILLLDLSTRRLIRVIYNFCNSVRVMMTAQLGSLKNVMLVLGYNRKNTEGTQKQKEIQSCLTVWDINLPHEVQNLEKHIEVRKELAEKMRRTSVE
T6 sequence (Q14289 whole entry): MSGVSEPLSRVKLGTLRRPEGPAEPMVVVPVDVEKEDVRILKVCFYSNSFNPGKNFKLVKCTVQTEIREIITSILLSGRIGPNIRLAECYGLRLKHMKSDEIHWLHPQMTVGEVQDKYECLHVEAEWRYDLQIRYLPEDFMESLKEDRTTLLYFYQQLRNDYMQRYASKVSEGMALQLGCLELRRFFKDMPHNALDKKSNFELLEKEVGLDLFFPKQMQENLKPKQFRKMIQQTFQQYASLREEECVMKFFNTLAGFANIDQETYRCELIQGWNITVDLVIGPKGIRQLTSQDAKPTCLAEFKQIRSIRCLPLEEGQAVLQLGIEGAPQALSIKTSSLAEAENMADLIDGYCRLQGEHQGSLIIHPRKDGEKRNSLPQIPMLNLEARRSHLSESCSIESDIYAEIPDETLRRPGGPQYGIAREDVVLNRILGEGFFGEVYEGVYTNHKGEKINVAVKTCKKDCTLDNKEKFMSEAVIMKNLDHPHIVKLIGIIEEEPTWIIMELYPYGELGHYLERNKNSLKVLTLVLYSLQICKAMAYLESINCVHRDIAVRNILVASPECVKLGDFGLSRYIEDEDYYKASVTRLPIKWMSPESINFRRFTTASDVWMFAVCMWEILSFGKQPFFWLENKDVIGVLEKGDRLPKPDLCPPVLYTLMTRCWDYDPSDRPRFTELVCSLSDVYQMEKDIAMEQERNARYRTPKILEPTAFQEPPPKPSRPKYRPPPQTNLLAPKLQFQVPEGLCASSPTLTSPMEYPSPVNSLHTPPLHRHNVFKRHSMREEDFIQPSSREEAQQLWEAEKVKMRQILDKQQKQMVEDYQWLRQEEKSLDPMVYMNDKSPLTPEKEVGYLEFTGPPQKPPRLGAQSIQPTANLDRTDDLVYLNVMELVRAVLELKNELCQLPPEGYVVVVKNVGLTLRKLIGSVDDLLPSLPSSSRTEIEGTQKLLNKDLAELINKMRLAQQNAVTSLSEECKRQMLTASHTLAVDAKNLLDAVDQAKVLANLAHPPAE
T18 sequence (Q8IY84 whole entry): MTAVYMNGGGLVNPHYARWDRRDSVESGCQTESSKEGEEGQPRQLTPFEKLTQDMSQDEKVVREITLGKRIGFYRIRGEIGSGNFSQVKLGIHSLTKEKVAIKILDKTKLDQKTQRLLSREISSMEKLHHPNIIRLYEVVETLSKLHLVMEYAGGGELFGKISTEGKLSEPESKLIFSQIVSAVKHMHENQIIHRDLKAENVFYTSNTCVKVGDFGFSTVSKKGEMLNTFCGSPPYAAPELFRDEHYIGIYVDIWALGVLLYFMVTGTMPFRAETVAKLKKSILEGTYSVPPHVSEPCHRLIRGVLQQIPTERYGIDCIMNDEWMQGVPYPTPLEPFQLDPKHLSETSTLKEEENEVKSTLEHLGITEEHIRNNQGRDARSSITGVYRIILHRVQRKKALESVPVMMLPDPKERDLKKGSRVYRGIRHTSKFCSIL
T17 sequence (Q5S007 whole entry I2020T): as the sequence (Q5S007 whole entry G2019S) above, with S2019G, I2020T counted along it

CC(C)c1cc(-c2n[nH]c(=O)n2-c2ccc3c(ccn3C)c2)c(O)cc1O [Ganetespib (STA9090)]
remaining activity at 10 µM [1]: 78.5% | remaining activity at 10 µM [2]: 67.9% | remaining activity at 10 µM [3]: 78% | remaining activity at 10 µM [4]: 73.7% | remaining activity at 10 µM [5]: 74.5% | remaining activity at 10 µM [6]: 78.5% | remaining activity at 10 µM [7]: 76.8%

CC(C)c1cc(-c2n[nH]c(=O)n2-c2ccc3c(ccn3C)c2)c(O)cc1O [Ganetespib]
remaining activity at 1 µM ([8]; compound 1 uM, read-out: % Enzyme Activity (relative to DMSO controls)): 45.5% | remaining activity at 10 µM [8, 20]: 12.8% | remaining activity at 10 µM [9]: 91% | remaining activity at 10 µM [10]: 43.5% | remaining activity at 10 µM [11]: 97.2% | remaining activity at 10 µM [12]: 103% | remaining activity at 10 µM [13]: 110% | remaining activity at 10 µM [14]: 56% | remaining activity at 10 µM [15]: 99.8% | remaining activity at 10 µM [16]: 28.6% | remaining activity at 10 µM [17]: 39% | remaining activity at 10 µM [18]: 90.5% | remaining activity at 10 µM [19]: 96.7%

CCNC(=O)c1noc(-c2cc(C(C)C)c(O)cc2O)c1-c1ccc(CN2CCOCC2)cc1 [Luminespib (AUY-922)]
% Enzyme Activity (relative to DMSO controls) [1]: 104.44% | remaining activity at 10 µM [1]: 106% | % Enzyme Activity (relative to DMSO controls) [2]: 91.06% | remaining activity at 10 µM [2]: 91.5% | % Enzyme Activity (relative to DMSO controls) [3]: 100.35% | remaining activity at 10 µM [3]: 100% | % Enzyme Activity (relative to DMSO controls) [4]: 99.77% | remaining activity at 10 µM [4]: 102% | % Enzyme Activity (relative to DMSO controls) [5]: 100.72% | remaining activity at 10 µM [5]: 104% | % Enzyme Activity (relative to DMSO controls) [6]: 97.56% | remaining activity at 10 µM [6]: 98.8% | % Enzyme Activity (relative to DMSO controls) [7]: 79.00% | remaining activity at 10 µM [7]: 80.5%

CCNC(=O)c1noc(-c2cc(C(C)C)c(O)cc2O)c1-c1ccc(CN2CCOCC2)cc1 [Luminespib]
% Enzyme Activity (relative to DMSO controls) ([8]; compound 10 uM): 49.59% | remaining activity at 10 µM [8, 20]: 52.3% | % Enzyme Activity (relative to DMSO controls) [9]: 108.65% | remaining activity at 10 µM [9]: 111% | % Enzyme Activity (relative to DMSO controls) [10]: 92.01% | remaining activity at 10 µM [10]: 92.4% | % Enzyme Activity (relative to DMSO controls) [11]: 96.43% | remaining activity at 10 µM [11]: 97.2% | % Enzyme Activity (relative to DMSO controls) [12]: 95.40% | remaining activity at 10 µM [12]: 96.8% | % Enzyme Activity (relative to DMSO controls) [13]: 97.43% | remaining activity at 10 µM [13]: 99.4% | % Enzyme Activity (relative to DMSO controls) [14]: 74.40% | remaining activity at 10 µM [14]: 74.9% | % Enzyme Activity (relative to DMSO controls) [15]: 93.40% | remaining activity at 10 µM [15]: 94.6% | % Enzyme Activity (relative to DMSO controls) [16]: 91.80% | remaining activity at 10 µM [16]: 93.5% | % Enzyme Activity (relative to DMSO controls) [17]: 86.48% | remaining activity at 10 µM [17]: 86.5% | % Enzyme Activity (relative to DMSO controls) [18]: 99.73% | remaining activity at 10 µM [18]: 99.8% | % Enzyme Activity (relative to DMSO controls) [19]: 96.30% | remaining activity at 10 µM [19]: 97.8%

— publication PMC8550792, “Evolution of kinase polypharmacology across HSP90 drug discovery” (Cell Chemical Biology, 2021)
